Experimental data taken from patent publication US4080467A, “Pharmaceutical compositions comprising 1,3-dithiolan-2-ylidene malonate derivatives” (Nihon Nohyaku Co., Ltd., priority 1976, dated 1978).

Legend:
[1] = system: Acute Liver Damage associated with Centrilobular Necrosis (carbon tetrachloride); experiment: Protective effect on acute liver damage associated with centrilobular necrosis (carbon tetrachloride model); format: in vivo, mice (four-week-old male, dd strain); settings: 250 mg/kg oral 6 h before CCl4, average of 5 to 6 mice; for p-GPT (plasma glutamic-pyruvic transaminase activity): 24 h after CCl4, values over 1,000 regarded as 1,000; for Liver Damage Index: 0 normal, 2 slightly recognized, 4 clearly observable damage, 6 heavy damage
From the text: Carbon tetrachloride (CCl4) administration induces centrilobular necrosis of the liver associated with loss of diphosphopyridine nucleotide, hepatic glycogen, coenzyme A and increase in neutral fat. Release of several enzymes from the hepatocytes, and increases of enzyme activities in the plasma are recognized as the result of the damage of the liver. A suitable means for evaluating the degree of damage induced by CCl4 or the degree of protection afforded by drugs is to study the plasma glutamic-pyruvic transaminase (p-GPT) activity.
Method: The test compounds were dissolved or suspended in olive oil and administered orally at the dose of 250 mg/kg to the mice (Four-week-old male mice-dd strain). After 6 hours, CCl4 was administered orally (0.05 ml/kg as olive oil solution). Animals were killed 24 hours after CCl4 administration, and the liver was grossly observed. The plasma was obtained by centrifugation. Activities of p-GPT were determined by the method of Reitman and Frankel and expressed in Karmen units.
Score for liver damage was as follows: […]
4 Clearly observable damage
Each figure indicates average of 5 to 6 mice. Values of p-GPT over 1,000 Karmen unit regarded as 1,000 for calculation of average for convenience.

[2] = system: fatty liver (carbon tetrachloride); experiment: Therapeutic effect on fatty liver (carbon tetrachloride model); format: in vivo, male rat (35 week-old, SD strain); settings: for Degree of fatty liver (histopathological examination): 10 days, one symbol per animal
Procedure: Carbon tetrachloride also induces fatty liver, but the picture of disease differs from the case of ethionine-induced fatty liver. Carbon tetrachloride is generally considered to damage microsome and thereby to inhibit protein synthesis and induce fatty liver.
Carbon tetrachloride was subscutaneously administered to 35 week-old male rat (SD strain) for 4 days at the dose of 1 ml/kg. The treated animals were left for 3 days after the last administration to maximize the manifestation of fatty liver.
Administration of the compounds of this invention was commenced on the fourth day after the administration of carbon tetrachloride was completed. It was orally given everyday for 10 days at the dose of 50 or 250 mg/kg. On the 11th day, the animals were sacrificed. The therapeutic effect was evaluated by determining the content of lipid in the liver (triglyceride and total lipid) and examining the histopathological changes. Triglyceride and total lipid were determined colorimetrically by chromotropic acid method and Bragdon's oxidation method, respectively.
Indices for the histopathological change is as follows.

[3] = Effect on glucose metabolism (blood sugar after glucose load); format: in vivo, mice; settings: for Blood Sugar: 250 mg/kg oral 6 h before glucose 4.0 g/kg
Procedure: The test compounds dissolved in olive oil and administered orally at the dose of 250 mg/kg to the mice. After 6 hours, 4.0 g/kg of glucose was orally administered. The same amount of glucose was given to the control animals. 0.02 ml of blood was taken from caudal vein of the mice at 30, 60, 90 and 120 min. after glucose administration. Blood sugar was measured by the procedure of Somogyi-Nelson. Number of animals used was 5 to 6 mice for each treatment.

[4] = system: bile flow and biliary salt; experiment: Cholagogic action: bile flow and excretion of biliary salt; format: in vivo, male rat (4 week-aged, SD-JCL strain); settings: 200 mg/kg oral; for bile flow / excretion of biliary salt: before treatment = 100
Procedure: The male rat (4 week-aged, SD-JCL strain) was anesthetized with sodium pentobarbital (37.5 mg/kg, intraperitoneal injection). The abdominal cavity was opened through a midline incision. The common bile duct was catheterized with polyethylene tube o.d. 0.8 mm. The catheter was brought to the outside through the abdominal incision wound prior to closing. Bile was collected from the catheter continuously with time intervals of one hour. The quantity of bile produced in one hour was determined by weighing and that of biliary salt was determined by enzymatic method (Ikagaku Jikkenho Koza 1B, Biological Constituents II, edited by Tamio YAMAKAWA). The amount of biliary salts was represented as cholic acid equivalent.
In the representation of the results, the quantities of bile and biliary salts produced in one hour prior to the administration of drug were taken as 100. The compound of this invention was orally administered at the dose of 200 mg/kg. As reference anethol trithion was used.

[5] = 50 mg/kg oral everyday for 10 days
[6] = 250 mg/kg oral everyday for 10 days

COC(=O)C(C(=O)OC)=C1SCCS1 [Compound 1]
p-GPT (plasma glutamic-pyruvic transaminase activity) [1]: 200 Karmen units
Liver Damage Index [1]: 2.2

CCCOC(=O)C(C(=O)OCCC)=C1SCCS1 [Compound 3, Di-n-propyl 1,3-dithiolan-2-ylidene malonate]
p-GPT (plasma glutamic-pyruvic transaminase activity) [1]: 26 Karmen units
Liver Damage Index [1]: 1.0

CCCCOC(=O)C(C(=O)OCCCC)=C1SCCS1 [Compound 5]
p-GPT (plasma glutamic-pyruvic transaminase activity) [1]: 322 Karmen units
Liver Damage Index [1]: 3.0

CC(C)COC(=O)C(C(=O)OCC(C)C)=C1SCCS1 [Compound 6]
p-GPT (plasma glutamic-pyruvic transaminase activity) [1]: 26 Karmen units
Liver Damage Index [1]: 0.5
Degree of fatty liver (histopathological examination) ([2]; 50 mg/kg oral): ± ± and ± ± + ±
Degree of fatty liver (histopathological examination) ([2]; 250 mg/kg oral): ± - - - ± ±

CCC(C)OC(=O)C(C(=O)OC(C)CC)=C1SCCS1 (stereo not shown) [Compound 7]
p-GPT (plasma glutamic-pyruvic transaminase activity) [1]: 102 Karmen units
Liver Damage Index [1]: 1.2

CC(C)(C)OC(=O)C(C(=O)OC(C)(C)C)=C1SCCS1 [Compound 8]
p-GPT (plasma glutamic-pyruvic transaminase activity) [1]: 230 Karmen units
Liver Damage Index [1]: 1.2

CCCCCOC(=O)C(C(=O)OCCCCC)=C1SCCS1 [Compound 9]
p-GPT (plasma glutamic-pyruvic transaminase activity) [1]: 550 Karmen units
Liver Damage Index [1]: 3.2

CC(C)CCOC(=O)C(C(=O)OCCC(C)C)=C1SCCS1 [Compound 10]
p-GPT (plasma glutamic-pyruvic transaminase activity) [1]: 350 Karmen units
Liver Damage Index [1]: 3.3

CSC(=O)C(C(=O)SC)=C1SCCS1 [Compound 11]
p-GPT (plasma glutamic-pyruvic transaminase activity) [1]: 750 Karmen units
Liver Damage Index [1]: 2.5

CCSC(=O)C(C(=O)SCC)=C1SCCS1 [Compound 12]
Blood Sugar (percent of 0 min value) ([3]; 0 min): 100%
Blood Sugar ([3]; 0 min): 141 ± 11.3 mg/dL
Blood Sugar ([3]; 30 min): 264 ± 21.5 mg/dL
Blood Sugar ([3]; 60 min): 225 ± 17.2 mg/dL
Blood Sugar ([3]; 90 min): 167 ± 15.6 mg/dL
Blood Sugar ([3]; 120 min): 142 ± 13.2 mg/dL
Blood Sugar (percent of 0 min value) ([3]; 30 min): 187%
Blood Sugar (percent of 0 min value) ([3]; 60 min): 160%
Blood Sugar (percent of 0 min value) ([3]; 90 min): 118%
Blood Sugar (percent of 0 min value) ([3]; 120 min): 100%
p-GPT (plasma glutamic-pyruvic transaminase activity) [1]: 36 Karmen units
Liver Damage Index [1]: 1.0

CC(C)SC(=O)C(C(=O)SC(C)C)=C1SCCS1 [Compound 13]
p-GPT (plasma glutamic-pyruvic transaminase activity) [1]: 105 Karmen units
Liver Damage Index [1]: 1.4
Degree of fatty liver (histopathological examination) ([2]; 50 mg/kg oral): ± ± and ± ± ± + ±
Degree of fatty liver (histopathological examination) ([2]; 250 mg/kg oral): - ± and - ± ± ±

CCCCSC(=O)C(C(=O)SCCCC)=C1SCCS1 [Compound 14]
p-GPT (plasma glutamic-pyruvic transaminase activity) [1]: 241 Karmen units
Liver Damage Index [1]: 1.4

COCCOC(=O)C(C(=O)OCCOC)=C1SCCS1 [Compound 15, di(methoxyethyl) 1,3-dithiolan-2-ylidene malonate]
p-GPT (plasma glutamic-pyruvic transaminase activity) [1]: 85 Karmen units
Liver Damage Index [1]: 1.5

CCOCCOC(=O)C(C(=O)OCCOCC)=C1SCCS1 [Compound 16]
p-GPT (plasma glutamic-pyruvic transaminase activity) [1]: 150 Karmen units
Liver Damage Index [1]: 1.0

CCCCOCCOC(=O)C(C(=O)OCCOCCCC)=C1SCCS1 [Compound 17]
p-GPT (plasma glutamic-pyruvic transaminase activity) [1]: 242 Karmen units
Liver Damage Index [1]: 3.0

CCOC(=O)C(C(=O)OC)=C1SCCS1 [Compound 18]
p-GPT (plasma glutamic-pyruvic transaminase activity) [1]: 240 Karmen units
Liver Damage Index [1]: 1.4

COC(=O)C(C(=O)OC(C)C)=C1SCCS1 [Compound 19, Methyl isopropyl 1,3-dithiolan-2-ylidene malonate]
p-GPT (plasma glutamic-pyruvic transaminase activity) [1]: 89 Karmen units
Liver Damage Index [1]: 1.0

COC(=O)C(C(=O)OCC(C)C)=C1SCCS1 [Compound 20]
bile flow ([4]; 1 hour after treatment): 113±4.3
excretion of biliary salt ([4]; 1 hour after treatment): 104±11
bile flow ([4]; 2 hours after treatment): 112±8.2
excretion of biliary salt ([4]; 2 hours after treatment): 119±13
bile flow ([4]; 3 hours after treatment): 106±6.3
excretion of biliary salt ([4]; 3 hours after treatment): 120±17
bile flow ([4]; 4 hours after treatment): 113±8.8
excretion of biliary salt ([4]; 4 hours after treatment): 113±18
bile flow ([4]; 5 hours after treatment): 93±3.8
excretion of biliary salt ([4]; 5 hours after treatment): 82±7.3
Amount of total biliary salts excreted for 5 hours relative to control ([4]; versus control): 1.55 times
Quantity of total excreted bile for 5 hours relative to control ([4]; versus control): 1.14 times
p-GPT (plasma glutamic-pyruvic transaminase activity) [1]: 62 Karmen units
Liver Damage Index [1]: 0.2

CC(C)COC(=O)C(C(=O)OC(C)C)=C1SCCS1 [Compound 23]
p-GPT (plasma glutamic-pyruvic transaminase activity) [1]: 102 Karmen units
Liver Damage Index [1]: 1.0

CCOCCOC(=O)C(C(=O)OC(C)C)=C1SCCS1 [Compound 24]
Blood Sugar (percent of 0 min value) ([3]; 0 min): 100%
Blood Sugar ([3]; 0 min): 135 ± 13.2 mg/dL
Blood Sugar ([3]; 30 min): 248 ± 20.2 mg/dL
Blood Sugar ([3]; 60 min): 214 ± 18.8 mg/dL
Blood Sugar ([3]; 90 min): 173 ± 24.4 mg/dL
Blood Sugar ([3]; 120 min): 140 ± 16.3 mg/dL
Blood Sugar (percent of 0 min value) ([3]; 30 min): 184%
Blood Sugar (percent of 0 min value) ([3]; 60 min): 158%
Blood Sugar (percent of 0 min value) ([3]; 90 min): 128%
Blood Sugar (percent of 0 min value) ([3]; 120 min): 104%
p-GPT (plasma glutamic-pyruvic transaminase activity) [1]: 152 Karmen units
Liver Damage Index [1]: 1.2

CCOCCOC(=O)C(C(=O)OCC)=C1SCCS1 [Compound 25]
p-GPT (plasma glutamic-pyruvic transaminase activity) [1]: 85 Karmen units
Liver Damage Index [1]: 1.0

CCOC(=O)C(C(=O)SC(C)C)=C1SCCS1 [Compound 27]
p-GPT (plasma glutamic-pyruvic transaminase activity) [1]: 18 Karmen units
Liver Damage Index [1]: 0.4

CCCCSC(=O)C(C(=O)OCC)=C1SCCS1 [Compound 28]
p-GPT (plasma glutamic-pyruvic transaminase activity) [1]: 31 Karmen units
Liver Damage Index [1]: 0.8

COC(=O)C(C(=O)OC)=C1SCC[S+]1[O-] (stereo not shown) [Compound 29]
p-GPT (plasma glutamic-pyruvic transaminase activity) [1]: 222 Karmen units
Liver Damage Index [1]: 0.6

CC(C)COC(=O)C(C(=O)OCC(C)C)=C1SCC[S+]1[O-] (stereo not shown) [Compound 32]
p-GPT (plasma glutamic-pyruvic transaminase activity) [1]: 180 Karmen units
Liver Damage Index [1]: 1.0
Total lipid [2, 5]: 112.4 ± 12.3 mg/g-liver
Triglyceride [2, 5]: 48.3 ± 7.6 mg/g-liver
Total lipid [2, 6]: 77.2 ± 8.7 mg/g-liver
Triglyceride [2, 6]: 26.3 ± 4.2 mg/g-liver

CC(C)(C)OC(=O)C(C(=O)OC(C)(C)C)=C1SCC[S+]1[O-] (stereo not shown) [Compound 33]
p-GPT (plasma glutamic-pyruvic transaminase activity) [1]: 212 Karmen units
Liver Damage Index [1]: 1.4

COC(=O)C(C(=O)OCC(C)C)=C1SCC[S+]1[O-] (stereo not shown) [Compound 34]
p-GPT (plasma glutamic-pyruvic transaminase activity) [1]: 102 Karmen units
Liver Damage Index [1]: 1.0

CCOC(=O)C(C(=O)OC(C)C)=C1SCC[S+]1[O-] (stereo not shown) [Compound 35]
p-GPT (plasma glutamic-pyruvic transaminase activity) [1]: 152 Karmen units
Liver Damage Index [1]: 0.8

CCOCCOC(=O)C(C(=O)OC(C)C)=C1SCC[S+]1[O-] (stereo not shown) [Compound 36]
p-GPT (plasma glutamic-pyruvic transaminase activity) [1]: 210 Karmen units
Liver Damage Index [1]: 1.4

NC(=O)CCCCC1CCSS1 (stereo not shown) [Thioctic acid amide, thioctic acid amide, reference compound]
p-GPT (plasma glutamic-pyruvic transaminase activity) [1]: 763 Karmen units
Liver Damage Index [1]: 4.8
